We go through ten substances from PMC10447463, “Data-mining unveils structure–property–activity correlation of viral infectivity enhancing self-assembling peptides” (Nature Communications, 2023).

The data set can be described thus: Aggregate analysis by widefield fluorescence microscopy. It is filed as physicochemical. In a few lines: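 Peptides diluted from 10 mg/mL DMSO stock to 1 mg/mL in PBS and aged 1 d at RT were diluted to 0.1 mg/mL with 50 µM ThT, then imaged with a 10x objective in fluorescence (ex 480/40, em 527/30 nm) and brightfield. Particles >10 µm^2 were counted by automated object counting over ≥3 images.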

The mark [1] stands for this setting: Fig S8 panels A, C, 3 fields of 1330 µm x 1330 µm.
The mark [2] stands for this setting: Fig S8 panels B, D, average aggregate area, 3 fields of 1330 µm x 1330 µm.
[3] abbreviates: Fig S8 panels B, D, median aggregate area, 3 fields of 1330 µm x 1330 µm.
Where [4] appears, read: Fig S8 panels B, D, 3 fields of 1330 µm x 1330 µm.
Setting [5] is: Fig S8 panels B, D, widefield fluorescence microscopy, 3 fields of 1330 µm x 1330 µm.

In the case of CSISIQI [TM141], under “Fig S8 panels A, C”, the “Avg Area in 3 *(1330 µm *1330 µm)” value stood at 112.5, the “Log 10 Number of aggregates in 3 * (1330 µm *1330 µm)” value (from here on “Log 10 Number of aggregates in 3 *”) is reported as 2.091, the “Median Area in 3 * (1330 µm *1330 µm)” value is 18.872 and the “log Avg Area in 3 * ( (1330 µm *1330 µm))” value (“log Avg Area in 3 *” for short) was 2.051. For the same substance, for the setting “Fig S8 panels A, C”, the “log Median Area in 3 * ( (1330 µm *1330 µm))” value (shortened to “log Median Area in 3 *”) came to 1.276 and the “log Total Area of all particles in 3 * (1330 µm *1330 µm)” value (shortened to “log Total Area of all particles in 3 *”) is reported as 4.142. Further, under setting [1], the “Number of aggregates in 3 * (1330 µm *1330 µm)” value was 123.3. Moreover, the “Avg Area in 3 *(1330 µm *1330 µm)” value under setting [2] was 112.5. For the same substance, the “Median Area in 3 * (1330 µm *1330 µm)” value under setting [3] turned out to be 18.872. Besides, the “Total Area of all particles in 3 * (1330 µm *1330 µm)” value under setting [4] is reported as 13871.26567. Besides, the “Number of aggregates in 3 * (1330 µm *1330 µm)” value under setting [5] is recorded as 123.3.
CHLHLQL [CN9]: for the setting “Fig S8 panels A, C”, the “Avg Area in 3 *(1330 µm *1330 µm)” value turned out to be 330.1, the “Log 10 Number of aggregates in 3 *” value stood at 1.5563, the “Median Area in 3 * (1330 µm *1330 µm)” value was 35.7 and the “log Avg Area in 3 *” value stood at 2.5187. Besides, under “Fig S8 panels A, C”, the “log Median Area in 3 *” value was determined as 1.553 and the “log Total Area of all particles in 3 *” value came out at 4.075. Besides, the “Number of aggregates in 3 * (1330 µm *1330 µm)” value under setting [1] stood at 36. Besides, the “Avg Area in 3 *(1330 µm *1330 µm)” value under setting [2] stood at 330.1. For the same substance, the “Median Area in 3 * (1330 µm *1330 µm)” value under setting [3] amounted to 35.7. Further, under setting [4], the “Total Area of all particles in 3 * (1330 µm *1330 µm)” value was found to be 11885.21533. The “Number of aggregates in 3 * (1330 µm *1330 µm)” value under setting [5] is recorded as 36.
With KFKFQFNMWQ [JG4], under “Fig S8 panels A, C”, the “Avg Area in 3 *(1330 µm *1330 µm)” value came out at 599.2, the “Log 10 Number of aggregates in 3 *” value is 1.806, the “Median Area in 3 * (1330 µm *1330 µm)” value is 25.773 and the “log Avg Area in 3 *” value stood at 2.778. For the setting “Fig S8 panels A, C”, the “log Median Area in 3 *” value came to 1.411 and the “log Total Area of all particles in 3 *” value worked out at 4.584. Besides, the “Number of aggregates in 3 * (1330 µm *1330 µm)” value under setting [1] was found to be 64. Besides, under setting [2], the “Avg Area in 3 *(1330 µm *1330 µm)” value was 599.2. The “Median Area in 3 * (1330 µm *1330 µm)” value under setting [3] came to 25.773. For the same substance, the “Total Area of all particles in 3 * (1330 µm *1330 µm)” value under setting [4] was 38349.21133. For the same substance, the “Number of aggregates in 3 * (1330 µm *1330 µm)” value under setting [5] is recorded as 64.
Regarding CKIKIQI [MG3b], under “Fig S8 panels A, C”, the “Avg Area in 3 *(1330 µm *1330 µm)” value was 58.72, the “Log 10 Number of aggregates in 3 *” value turned out to be 2.501, the “Median Area in 3 * (1330 µm *1330 µm)” value is listed as 16.48 and the “log Avg Area in 3 *” value was found to be 1.7688. Besides, where the note is “Fig S8 panels A, C”, the “log Median Area in 3 *” value is 1.2169 and the “log Total Area of all particles in 3 *” value was found to be 4.27. For the same substance, the “Number of aggregates in 3 * (1330 µm *1330 µm)” value under setting [1] is 317. Under setting [2], the “Avg Area in 3 *(1330 µm *1330 µm)” value worked out at 58.72. Further, the “Median Area in 3 * (1330 µm *1330 µm)” value under setting [3] was 16.48. Besides, under setting [4], the “Total Area of all particles in 3 * (1330 µm *1330 µm)” value came out at 18614.711. In addition, under setting [5], the “Number of aggregates in 3 * (1330 µm *1330 µm)” value is listed as 317.
CKIKQIINMWQ [MG5a / CK17]: where the note is “Fig S8 panels A, C”, the “Avg Area in 3 *(1330 µm *1330 µm)” value is reported as 183.3, the “Log 10 Number of aggregates in 3 *” value came out at 2.289, the “Median Area in 3 * (1330 µm *1330 µm)” value is on record as 91.75 and the “log Avg Area in 3 *” value worked out at 2.263. For the setting “Fig S8 panels A, C”, the “log Median Area in 3 *” value is given as 1.963 and the “log Total Area of all particles in 3 *” value amounted to 4.553. For the same substance, the “Number of aggregates in 3 * (1330 µm *1330 µm)” value under setting [1] stood at 194.7. Moreover, the “Avg Area in 3 *(1330 µm *1330 µm)” value under setting [2] came to 183.3. Also, the “Median Area in 3 * (1330 µm *1330 µm)” value under setting [3] came out at 91.75. The “Total Area of all particles in 3 * (1330 µm *1330 µm)” value under setting [4] is 35686.92633. Further, under setting [5], the “Number of aggregates in 3 * (1330 µm *1330 µm)” value is 194.7.
In the case of CKFKFQF [BL4], where the note is “Fig S8 panels A, C”, the “Avg Area in 3 *(1330 µm *1330 µm)” value is given as 86.55, the “Log 10 Number of aggregates in 3 *” value is reported as 2.108, the “Median Area in 3 * (1330 µm *1330 µm)” value is on record as 22.111 and the “log Avg Area in 3 *” value is given as 1.937. For the setting “Fig S8 panels A, C”, the “log Median Area in 3 *” value is reported as 1.345 and the “log Total Area of all particles in 3 *” value stood at 4.0456. Also, under setting [1], the “Number of aggregates in 3 * (1330 µm *1330 µm)” value is given as 128.3. Besides, the “Avg Area in 3 *(1330 µm *1330 µm)” value under setting [2] is recorded as 86.55. Also, the “Median Area in 3 * (1330 µm *1330 µm)” value under setting [3] was determined as 22.111. Further, the “Total Area of all particles in 3 * (1330 µm *1330 µm)” value under setting [4] came to 11106.98933. The “Number of aggregates in 3 * (1330 µm *1330 µm)” value under setting [5] is 128.3.
Regarding HHHHKIKIKIKIYYYY [TM6], under “Fig S8 panels A, C”, the “Avg Area in 3 *(1330 µm *1330 µm)” value is on record as 71.63, the “Log 10 Number of aggregates in 3 *” value is listed as 2.1683, the “Median Area in 3 * (1330 µm *1330 µm)” value was found to be 19.72 and the “log Avg Area in 3 *” value amounted to 1.855. In addition, for the setting “Fig S8 panels A, C”, the “log Median Area in 3 *” value stood at 1.295 and the “log Total Area of all particles in 3 *” value came out at 4.023. For the same substance, the “Number of aggregates in 3 * (1330 µm *1330 µm)” value under setting [1] worked out at 147.3. Besides, the “Avg Area in 3 *(1330 µm *1330 µm)” value under setting [2] was found to be 71.63. Besides, the “Median Area in 3 * (1330 µm *1330 µm)” value under setting [3] worked out at 19.72. Moreover, the “Total Area of all particles in 3 * (1330 µm *1330 µm)” value under setting [4] is listed as 10553.37833. The “Number of aggregates in 3 * (1330 µm *1330 µm)” value under setting [5] is 147.3.
Consider KIKQIINMWQ [JG2], for which, for the setting “Fig S8 panels A, C”, the “Avg Area in 3 *(1330 µm *1330 µm)” value is reported as 398.2, the “Log 10 Number of aggregates in 3 *” value is 1.591, the “Median Area in 3 * (1330 µm *1330 µm)” value amounted to 199.4905 and the “log Avg Area in 3 *” value was found to be 2.6. Further, where the note is “Fig S8 panels A, C”, the “log Median Area in 3 *” value is on record as 2.3 and the “log Total Area of all particles in 3 *” value amounted to 4.191. Also, the “Number of aggregates in 3 * (1330 µm *1330 µm)” value under setting [1] worked out at 39. Also, the “Avg Area in 3 *(1330 µm *1330 µm)” value under setting [2] was 398.2. The “Median Area in 3 * (1330 µm *1330 µm)” value under setting [3] was determined as 199.4905. Further, under setting [4], the “Total Area of all particles in 3 * (1330 µm *1330 µm)” value stood at 15530.404. In addition, under setting [5], the “Number of aggregates in 3 * (1330 µm *1330 µm)” value was determined as 39.
Consider CQFQFQF [QBL4], for which, where the note is “Fig S8 panels A, C”, the “Avg Area in 3 *(1330 µm *1330 µm)” value was 73.07, the “Log 10 Number of aggregates in 3 *” value was 1.6596, the “Median Area in 3 * (1330 µm *1330 µm)” value is reported as 15.07 and the “log Avg Area in 3 *” value stood at 1.864. Under “Fig S8 panels A, C”, the “log Median Area in 3 *” value turned out to be 1.178 and the “log Total Area of all particles in 3 *” value came out at 3.523. Besides, the “Number of aggregates in 3 * (1330 µm *1330 µm)” value under setting [1] is 45.67. In addition, the “Avg Area in 3 *(1330 µm *1330 µm)” value under setting [2] stood at 73.07. Besides, under setting [3], the “Median Area in 3 * (1330 µm *1330 µm)” value is recorded as 15.07. Moreover, under setting [4], the “Total Area of all particles in 3 * (1330 µm *1330 µm)” value worked out at 3337. Moreover, the “Number of aggregates in 3 * (1330 µm *1330 µm)” value under setting [5] is given as 45.67.
Take QCKIKIQINMWQ [EF-C opt]: under “Fig S8 panels A, C”, the “Avg Area in 3 *(1330 µm *1330 µm)” value is 21.24, the “Log 10 Number of aggregates in 3 *” value is 2.6, the “Median Area in 3 * (1330 µm *1330 µm)” value is reported as 11.97 and the “log Avg Area in 3 *” value is 1.327. Further, under “Fig S8 panels A, C”, the “log Median Area in 3 *” value is on record as 1.078 and the “log Total Area of all particles in 3 *” value was found to be 3.927. Besides, the “Number of aggregates in 3 * (1330 µm *1330 µm)” value under setting [1] amounted to 398. Further, the “Avg Area in 3 *(1330 µm *1330 µm)” value under setting [2] is 21.24. Under setting [3], the “Median Area in 3 * (1330 µm *1330 µm)” value turned out to be 11.97. Further, under setting [4], the “Total Area of all particles in 3 * (1330 µm *1330 µm)” value is 8454. In addition, under setting [5], the “Number of aggregates in 3 * (1330 µm *1330 µm)” value is 398.
